The source of these data is patent publication US20180099967A1, “FUSED TRICYCLIC HETEROCYCLIC COMPOUNDS AS HIV INTEGRASE INHIBITORS” (MERCK SHARP & DOHME CORP., priority 2015, published 2018).

Like-named read-outs stand apart in the source and are kept apart here.

The test system of the assay is HIV-1. Description: microbe, parasite or virus in culture. Format: cell-based, HIV-1 (H9IIIB or NL4-3 virus). As for the experimental part: HIV-1 replication was monitored using MT4-gag-GFP clone D3 (hereafter designate MT4-GFP), which are MT-4 cells modified to harbor a GFP reporter gene, the expression of which is dependent on the HIV-1 expressed proteins tat and rev. Productive infection of an MT4-GFP cell with HIV-1 results in GFP expression approximately 24 h post-infection.
MT4-GFP cells were maintained at 37° C./5% CO2/90% relative humidity in RPMI 1640 supplemented with 10% fetal bovine serum, 100 U/ml penicillin/streptomycin, and 400 μg/ml G418 to maintain the reporter gene. For infections, MT4-GFP cells were placed in the same medium lacking G418 and infected overnight with H9IIIB or NL4-3 virus at an approximate multiplicity of infection of 0.01 in the same incubation conditions. Cells were then washed and resuspended in either RPMI 1640 containing no serum at 1.6×10^5 cells/mL (serum free conditions), 10% normal human serum at 1.6×10^5 cells/mL (10% NHS conditions) or in 100% normal human serum at 2×10^5 cells/mL (100% NHS conditions). Compound plates were prepared by dispensing compounds taken up in DMSO into wells of 384 well poly D lysine-coated plates (0.2 μl/well) using an ECHO acoustic dispenser. Each compound was tested in a 10 point serial 3-fold dilution (typical final concentrations: 4.2 μM-0.21 nM). Controls included no inhibitor (DMSO only) and a combination of three antiviral agents (efavirenz, indinavir, and the integrase strand transfer inhibitor L-002254051 at final concentrations of 4 μM each). Cells were added (50 μL/well) to compound plates and the infected cells were maintained at 37° C./5% CO2/90% relative humidity.
Infected cells were quantified at two time points, ˜48 h and ˜72 h post-infection, by counting the number of green cells in each well using an Acumen eX3 scanner. […] Inhibition of R0 is calculated for each well, and IC50 value was determined using non-linear 4-parameter curve fitting.

Setting [1] is: read-out: WILD TYPE CELL ASSAY Viking IP (0% NHS).
[2] abbreviates: read-out: WILD TYPE CELL ASSAY Viking IP (100% NHS).
The mark [3] stands for this setting: Human immunodeficiency virus 1, read-out: WILD TYPE CELL ASSAY Viking IP (0% NHS) (nM).
Setting [4] is: Human immunodeficiency virus 1, read-out: WILD TYPE CELL ASSAY Viking IP (100% NHS) (nM).

`CCN1C[C@@H]2CC(N3CCCC3)c3c(C(=O)NCc4ccc(F)cc4F)c(=O)c(O)c(n32)C1=O` (single isomer, unassigned) [Compound 33]: the IC50 was 9 nM under setting [1] and 32 nM under setting [2].
Consider `CCN1C[C@@H]2CC(N3CCCC3)c3c(C(=O)NCc4ccc(F)cc4F)c(=O)c(O)c(n32)C1=O` (single isomer, unassigned) [Compound 34], for which the IC50 runs as follows: under setting [1], 55 nM; under setting [2], 487 nM.
On the same counts, the results for `CCN1C[C@H]2CC(N3CCCC3)c3c(C(=O)NCc4ccc(F)cc4F)c(=O)c(O)c(n32)C1=O` (single isomer, unassigned) [Compound 35] are 26 nM and 62 nM.
On the same counts, the results for `CCN1C[C@H]2CC(N3CCCC3)c3c(C(=O)NCc4ccc(F)cc4F)c(=O)c(O)c(n32)C1=O` (single isomer, unassigned) [Compound 36] are 6 nM and 1190 nM.
`CCN1C[C@@H]2C[C@@H](N3CCCC3)c3c(C(=O)NCc4cccc(F)c4F)c(=O)c(O)c(n32)C1=O` (single isomer, unassigned) [Compound 43]: the IC50 stood at 10 nM under setting [3] and 42 nM under setting [4].
The like results for `CCN1C[C@H]2C[C@H](NC(C)=O)c3c(C(=O)NCc4ccc(F)cc4F)c(=O)c(O)c(n32)C1=O` (single isomer, unassigned) [Compound 54] were, in that order, 6 nM and 38 nM.
Take `CCNC1CC2CN(CCOC)C(=O)c3c(O)c(=O)c(C(=O)NCc4ccc(F)cc4F)c1n32` (single isomer, unassigned) [Compound 65]: the IC50 stood at 12 nM under setting [3] and 42 nM under setting [2].
For `CCNC1CC2CN(CCOC)C(=O)c3c(O)c(=O)c(C(=O)NCc4ccc(F)cc4F)c1n32` (single isomer, unassigned) [Compound 66], the IC50 runs as follows: under setting [1], 12 nM; under setting [2], 180 nM.
Regarding `CCNC1CC2CN(CCOC)C(=O)c3c(O)c(=O)c(C(=O)NCc4ccc(F)cc4F)c1n32` (single isomer, unassigned) [Compound 67], the IC50 was 7 nM under setting [1] and 31 nM under setting [2].
On the same counts, the results for `CCCN1CC2CC(NS(C)(=O)=O)c3c(C(=O)NCc4ccc(F)cc4F)c(=O)c(O)c(n32)C1=O` (single isomer, unassigned) [Compound 68] are 3 nM and 26 nM.
On the same counts, the results for `CCCN1CC2CC(NS(C)(=O)=O)c3c(C(=O)NCc4ccc(F)cc4F)c(=O)c(O)c(n32)C1=O` (single isomer, unassigned) [Compound 69] are 7 nM and 4560 nM.
On the same counts, the results for `CCCN1CC2CC(NS(C)(=O)=O)c3c(C(=O)NCc4ccc(F)cc4F)c(=O)c(O)c(n32)C1=O` (single isomer, unassigned) [Compound 70] are 20 nM and 1840 nM.
As for `CCCN1CC2CC(NS(C)(=O)=O)c3c(C(=O)NCc4ccc(F)cc4F)c(=O)c(O)c(n32)C1=O` (single isomer, unassigned) [Compound 71], the IC50 under setting [1] is 3 nM and the IC50 under setting [2] came out at 17 nM.
The like results for `CCN1C[C@@H]2C[C@@H](N)c3c(C(=O)NCc4ccc(F)cc4F)c(=O)c(O)c(n32)C1=O` [Compound 1] were, in that order, 2 nM and 19 nM.
As for `CCN1C[C@@H]2C[C@H](N)c3c(C(=O)NCc4ccc(F)cc4F)c(=O)c(O)c(n32)C1=O` [Compound 2], the IC50 under setting [1] amounted to 12 nM and the IC50 under setting [2] was 374 nM.
For `CCN1C[C@H]2C[C@H](N)c3c(C(=O)NCc4ccc(F)cc4F)c(=O)c(O)c(n32)C1=O` [Compound 3], the IC50 came to 10 nM under setting [3] and 4500 nM under setting [4].
Consider `CCN1C[C@H]2C[C@@H](N)c3c(C(=O)NCc4ccc(F)cc4F)c(=O)c(O)c(n32)C1=O` [Compound 4], for which the IC50 is 2 nM under setting [3] and 158 nM under setting [4].
As for `CCN1C[C@@H]2C[C@@H](NC)c3c(C(=O)NCc4ccc(F)cc4F)c(=O)c(O)c(n32)C1=O` [Compound 5], the IC50 was found to be 2 nM under setting [3] and 17 nM under setting [4].
On the same counts, the results for `CCN1C[C@@H]2C[C@H](NC)c3c(C(=O)NCc4ccc(F)cc4F)c(=O)c(O)c(n32)C1=O` [Compound 6] are 5 nM and 245 nM.
On the same counts, the results for `CCN1C[C@H]2C[C@H](NC)c3c(C(=O)NCc4ccc(F)cc4F)c(=O)c(O)c(n32)C1=O` [Compound 7] are 2 nM and 3420 nM.
On the same counts, the results for `CCN1C[C@H]2C[C@@H](NC)c3c(C(=O)NCc4ccc(F)cc4F)c(=O)c(O)c(n32)C1=O` [Compound 8] are 2 nM and 33 nM.
On to `CCN[C@@H]1C[C@H]2CN(CC)C(=O)c3c(O)c(=O)c(C(=O)NCc4ccc(F)cc4F)c1n32` [Compound 9], for which the IC50 is 1 nM under setting [3] and 11 nM under setting [4].
As to `CCN[C@H]1C[C@H]2CN(CC)C(=O)c3c(O)c(=O)c(C(=O)NCc4ccc(F)cc4F)c1n32` [Compound 10], the IC50 is, setting by setting: under setting [3], 1 nM; under setting [4], 170 nM.
As to `CCN[C@H]1C[C@@H]2CN(CC)C(=O)c3c(O)c(=O)c(C(=O)NCc4ccc(F)cc4F)c1n32` [Compound 11], the IC50 reads like this: under setting [3], 2 nM; under setting [4], 1100 nM.
The like results for `CCN[C@@H]1C[C@@H]2CN(CC)C(=O)c3c(O)c(=O)c(C(=O)NCc4ccc(F)cc4F)c1n32` [Compound 12] were, in that order, 10 nM and 32 nM.
The like results for `CCN[C@H]1C[C@@H]2CN(CC)C(=O)c3c(O)c(=O)c(C(=O)NCc4c(F)cc(F)cc4F)c1n32` [Compound 13] were, in that order, 7 nM and 4020 nM.
On the same counts, the results for `CCN[C@@H]1C[C@@H]2CN(CC)C(=O)c3c(O)c(=O)c(C(=O)NCc4c(F)cc(F)cc4F)c1n32` [Compound 14] are 6 nM and 47 nM.
On to `CCN[C@H]1C[C@@H]2CN(CC)C(=O)c3c(O)c(=O)c(C(=O)NCc4ccc(F)c(Cl)c4F)c1n32` [Compound 15], for which the IC50 was 13 nM under setting [3] and more than 8400 nM under setting [4].
For `CCN[C@@H]1C[C@@H]2CN(CC)C(=O)c3c(O)c(=O)c(C(=O)NCc4ccc(F)c(Cl)c4F)c1n32` [Compound 16], the IC50 is more than 42000 nM under setting [3] and more than 42000 nM under setting [4].
Regarding `CCN[C@H]1C[C@@H]2CN(CC)C(=O)c3c(O)c(=O)c(C(=O)NCc4cccc(F)c4F)c1n32` [Compound 17], the IC50 worked out at 14 nM under setting [3] and 1980 nM under setting [4].
The like results for `CCN[C@@H]1C[C@@H]2CN(CC)C(=O)c3c(O)c(=O)c(C(=O)NCc4cccc(F)c4F)c1n32` [Compound 18] were, in that order, 10 nM and 25 nM.
As for `CCN[C@H]1C[C@@H]2CN(CC)C(=O)c3c(O)c(=O)c(C(=O)NCc4cccc(Cl)c4F)c1n32` [Compound 19], the IC50 amounted to 10 nM under setting [3] and 10900 nM under setting [4].
On the same counts, the results for `CCN[C@@H]1C[C@@H]2CN(CC)C(=O)c3c(O)c(=O)c(C(=O)NCc4cccc(Cl)c4F)c1n32` [Compound 20] are 5 nM and 28 nM.
On the same counts, the results for `CCCN[C@H]1C[C@@H]2CN(CC)C(=O)c3c(O)c(=O)c(C(=O)NCc4ccc(F)cc4F)c1n32` [Compound 21] are 17 nM and 2290 nM.
For the molecule `CCCN[C@@H]1C[C@@H]2CN(CC)C(=O)c3c(O)c(=O)c(C(=O)NCc4ccc(F)cc4F)c1n32` [Compound 22], the IC50 was 11 nM under setting [3] and 34 nM under setting [4].
